According to PMC4783179 (The Journal of comparative neurology, 2015):

Target: adrenergic α1A (Homo sapiens, UniProt P35348)
Experiment: NIMH PDSP binding affinity, human cloned receptor

Chain of adrenergic α1A (P35348 whole entry): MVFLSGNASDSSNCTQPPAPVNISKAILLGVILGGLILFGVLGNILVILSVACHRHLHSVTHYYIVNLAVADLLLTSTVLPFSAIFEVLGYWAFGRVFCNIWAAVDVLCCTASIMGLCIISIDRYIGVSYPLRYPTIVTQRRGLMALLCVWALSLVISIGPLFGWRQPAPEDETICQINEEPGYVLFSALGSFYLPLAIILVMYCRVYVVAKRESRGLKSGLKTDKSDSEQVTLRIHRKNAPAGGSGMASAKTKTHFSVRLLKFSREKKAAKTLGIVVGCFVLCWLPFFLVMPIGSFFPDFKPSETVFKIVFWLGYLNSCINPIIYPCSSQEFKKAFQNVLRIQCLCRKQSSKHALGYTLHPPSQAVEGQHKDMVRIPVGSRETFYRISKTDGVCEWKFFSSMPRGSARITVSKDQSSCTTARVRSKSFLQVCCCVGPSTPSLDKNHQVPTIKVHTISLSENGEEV

## COc1ccccc1N1CCN(CCN(C(=O)C2CCC(CF)CC2)c2ccccn2)CC1 (centres unmarked) [Mefway]
[5-HT1A affinity/other receptor affinity]×100, 5-HT1A 0.6 or 2.2 nM for WAY-100635, 0.9 nM for Mefway
  % human 5HT1A Selectivity, α1A: 1.29%
read-out: Binding affinity, Ki, α1A, human cloned receptor, PDSP
  Ki: 70 nM
